Earlier results on two compounds are cited in patent publication US8492403B2, “Bicyclic derivatives as modulators of voltage gated ion channels” (Vertex Pharmaceuticals Incorporated, priority 2005, dated 2013).

The conditions of data set [1]: neuropathic pain; cited from earlier work.
The target in data set [2] is NaV 1.3 (Homo sapiens, UniProt Q9NY46). The note with it: read-out: TTX IC50; cited from earlier work.
In data set [3] the target is NaV 1.8 (Homo sapiens, UniProt Q9Y5Y9). The note with it: read-out: TTX IC50; cited from earlier work.
Chain of NaV 1.8 (Q9Y5Y9 whole entry, looked up): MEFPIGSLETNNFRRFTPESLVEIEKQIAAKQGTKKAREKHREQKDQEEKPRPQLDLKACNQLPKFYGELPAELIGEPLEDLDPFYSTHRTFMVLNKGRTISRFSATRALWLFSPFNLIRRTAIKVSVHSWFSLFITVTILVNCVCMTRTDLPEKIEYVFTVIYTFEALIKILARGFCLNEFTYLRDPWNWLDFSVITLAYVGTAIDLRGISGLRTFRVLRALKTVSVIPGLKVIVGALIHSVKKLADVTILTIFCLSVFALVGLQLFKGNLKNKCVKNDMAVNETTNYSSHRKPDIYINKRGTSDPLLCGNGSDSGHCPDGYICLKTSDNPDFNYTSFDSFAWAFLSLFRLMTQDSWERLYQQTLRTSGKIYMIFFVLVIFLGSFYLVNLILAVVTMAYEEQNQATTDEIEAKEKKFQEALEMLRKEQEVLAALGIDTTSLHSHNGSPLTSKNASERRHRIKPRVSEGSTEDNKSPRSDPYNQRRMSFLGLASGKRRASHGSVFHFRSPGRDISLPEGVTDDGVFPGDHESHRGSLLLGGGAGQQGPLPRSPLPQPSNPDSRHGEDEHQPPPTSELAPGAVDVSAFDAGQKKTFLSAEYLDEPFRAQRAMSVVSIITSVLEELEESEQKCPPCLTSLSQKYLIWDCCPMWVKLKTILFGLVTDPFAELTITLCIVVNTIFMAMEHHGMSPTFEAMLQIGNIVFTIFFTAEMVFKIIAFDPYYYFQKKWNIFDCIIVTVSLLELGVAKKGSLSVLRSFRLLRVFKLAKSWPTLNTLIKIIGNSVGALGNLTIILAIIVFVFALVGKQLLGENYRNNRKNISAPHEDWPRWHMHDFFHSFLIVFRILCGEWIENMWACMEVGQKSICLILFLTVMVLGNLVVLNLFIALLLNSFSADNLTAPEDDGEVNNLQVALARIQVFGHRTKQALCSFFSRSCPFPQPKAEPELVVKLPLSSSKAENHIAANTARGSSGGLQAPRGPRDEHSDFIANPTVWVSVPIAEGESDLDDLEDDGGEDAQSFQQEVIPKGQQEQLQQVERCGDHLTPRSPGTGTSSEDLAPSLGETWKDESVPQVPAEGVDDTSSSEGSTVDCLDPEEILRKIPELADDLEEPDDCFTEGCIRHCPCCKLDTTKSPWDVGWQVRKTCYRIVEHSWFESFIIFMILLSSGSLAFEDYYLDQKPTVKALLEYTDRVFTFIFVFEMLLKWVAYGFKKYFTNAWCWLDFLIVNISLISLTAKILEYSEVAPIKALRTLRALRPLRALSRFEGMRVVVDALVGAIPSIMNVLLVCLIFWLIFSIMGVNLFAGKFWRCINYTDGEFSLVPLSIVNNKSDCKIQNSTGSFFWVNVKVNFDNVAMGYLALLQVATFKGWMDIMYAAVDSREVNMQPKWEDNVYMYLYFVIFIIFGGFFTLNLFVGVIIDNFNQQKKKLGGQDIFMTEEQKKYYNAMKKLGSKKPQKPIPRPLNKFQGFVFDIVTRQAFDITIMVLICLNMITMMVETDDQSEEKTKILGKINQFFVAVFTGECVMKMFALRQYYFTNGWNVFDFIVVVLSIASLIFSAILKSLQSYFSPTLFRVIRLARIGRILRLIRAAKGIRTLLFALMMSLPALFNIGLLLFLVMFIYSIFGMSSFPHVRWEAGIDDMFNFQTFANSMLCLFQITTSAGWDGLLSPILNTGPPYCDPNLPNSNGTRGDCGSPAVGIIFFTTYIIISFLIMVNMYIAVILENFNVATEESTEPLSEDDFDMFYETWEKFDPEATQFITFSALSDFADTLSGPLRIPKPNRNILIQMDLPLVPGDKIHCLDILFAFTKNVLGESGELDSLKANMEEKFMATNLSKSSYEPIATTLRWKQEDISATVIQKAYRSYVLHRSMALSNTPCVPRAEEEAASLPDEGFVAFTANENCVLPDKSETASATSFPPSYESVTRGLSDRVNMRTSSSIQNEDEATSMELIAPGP

Chain of NaV 1.3 (Q9NY46 whole entry, looked up): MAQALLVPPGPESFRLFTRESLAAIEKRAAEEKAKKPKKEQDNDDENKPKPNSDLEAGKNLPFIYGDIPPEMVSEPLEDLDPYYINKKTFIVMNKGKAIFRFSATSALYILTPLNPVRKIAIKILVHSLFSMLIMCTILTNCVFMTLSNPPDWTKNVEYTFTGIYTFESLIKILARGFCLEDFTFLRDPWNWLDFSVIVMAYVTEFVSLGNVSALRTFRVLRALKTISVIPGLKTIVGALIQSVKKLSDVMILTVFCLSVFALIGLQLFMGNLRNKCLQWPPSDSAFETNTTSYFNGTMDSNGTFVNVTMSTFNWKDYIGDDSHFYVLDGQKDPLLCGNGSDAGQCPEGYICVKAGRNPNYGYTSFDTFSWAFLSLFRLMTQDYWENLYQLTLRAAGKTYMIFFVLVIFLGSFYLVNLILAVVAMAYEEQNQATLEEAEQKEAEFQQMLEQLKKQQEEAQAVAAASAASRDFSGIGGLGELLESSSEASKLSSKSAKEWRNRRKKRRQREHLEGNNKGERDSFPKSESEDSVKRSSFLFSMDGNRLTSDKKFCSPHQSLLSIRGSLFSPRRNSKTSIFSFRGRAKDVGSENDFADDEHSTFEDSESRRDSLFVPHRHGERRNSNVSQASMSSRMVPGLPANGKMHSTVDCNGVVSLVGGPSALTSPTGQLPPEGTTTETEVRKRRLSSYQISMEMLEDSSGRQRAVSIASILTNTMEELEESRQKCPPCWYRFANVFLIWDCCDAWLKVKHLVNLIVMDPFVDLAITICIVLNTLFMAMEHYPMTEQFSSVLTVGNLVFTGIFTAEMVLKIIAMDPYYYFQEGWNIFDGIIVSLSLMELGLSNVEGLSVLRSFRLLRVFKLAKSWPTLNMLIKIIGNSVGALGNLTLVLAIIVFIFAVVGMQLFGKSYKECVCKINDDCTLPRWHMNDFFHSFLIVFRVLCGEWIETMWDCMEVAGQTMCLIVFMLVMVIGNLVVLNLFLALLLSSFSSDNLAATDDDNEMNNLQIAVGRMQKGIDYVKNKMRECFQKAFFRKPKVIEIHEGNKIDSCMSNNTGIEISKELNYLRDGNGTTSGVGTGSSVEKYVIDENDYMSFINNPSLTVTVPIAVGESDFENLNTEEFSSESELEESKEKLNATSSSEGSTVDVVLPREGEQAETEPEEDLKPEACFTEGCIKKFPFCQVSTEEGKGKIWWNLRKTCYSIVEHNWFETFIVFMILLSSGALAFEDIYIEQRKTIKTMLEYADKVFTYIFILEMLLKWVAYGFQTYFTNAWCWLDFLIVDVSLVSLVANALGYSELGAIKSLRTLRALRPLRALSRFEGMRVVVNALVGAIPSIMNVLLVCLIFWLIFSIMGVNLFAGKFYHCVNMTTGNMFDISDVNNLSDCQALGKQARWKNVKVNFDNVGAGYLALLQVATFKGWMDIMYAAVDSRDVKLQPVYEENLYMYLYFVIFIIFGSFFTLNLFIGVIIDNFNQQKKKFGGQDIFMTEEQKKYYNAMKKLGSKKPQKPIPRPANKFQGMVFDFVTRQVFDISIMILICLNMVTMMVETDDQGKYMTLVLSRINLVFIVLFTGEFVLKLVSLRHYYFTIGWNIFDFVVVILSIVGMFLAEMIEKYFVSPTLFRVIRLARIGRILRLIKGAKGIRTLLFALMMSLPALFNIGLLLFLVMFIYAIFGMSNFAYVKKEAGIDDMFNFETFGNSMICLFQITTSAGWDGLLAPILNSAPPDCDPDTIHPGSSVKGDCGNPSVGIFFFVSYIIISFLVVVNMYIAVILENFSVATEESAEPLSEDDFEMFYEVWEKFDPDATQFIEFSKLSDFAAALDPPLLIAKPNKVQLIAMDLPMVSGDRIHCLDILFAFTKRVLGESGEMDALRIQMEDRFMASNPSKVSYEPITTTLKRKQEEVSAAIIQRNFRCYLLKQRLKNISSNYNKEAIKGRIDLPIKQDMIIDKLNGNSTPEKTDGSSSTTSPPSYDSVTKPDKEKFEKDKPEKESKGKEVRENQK

On to `NCC1(CC(=O)O)CCCCC1` [Gabapentin], for which the “share of patients in which it works” value in data set [1] is 60%. With `NC1=N[C@H](O)[C@H]2[C@H]3O[C@]4(O)O[C@@H]([C@@H](O)[C@@]2(N1)[C@@H]4O)[C@]3(O)CO` [TTX, tetrodotoxin], the IC50 in data set [2] is 15 nM; in data set [3], above 50000 nM.
